Where two headings read alike, the source gives them in different places.
Experiments:
BCL2 D103Y = BCL2 D103Y (Homo sapiens, UniProt P10415, D103Y); assay: TR-FRET competitive binding assay, BCL2 D103Y; details: Ki determined from IC50, read-out: TR_FRET EKI_Bcl2 D103Y
Summary of the method: (§1)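 Ki derived from IC50 (11-point dilution, 520/495 nm emission ratio) for displacing a fluorescein-labelled PUMA peptide (2 or 20 nM). Target was 0.5 nM E. coli-expressed Halo-tagged BCL2 (1-207) or BCLXL (2-196), terbium-labelled on Halo. Incubation 2 h at 23°C in pH 7.5 Hepes with 150 mM NaCl and 5% DMSO.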

BCL2 G101V [1] = target: BCL2 G101V (Homo sapiens, UniProt P10415, G101V); assay: TR-FRET competitive binding assay, BCL2 G101V; details: BCL2 G101V; Ki determined from IC50; read-out: TR_FRET EKI_Bcl2 G101V
Summary of the method: as §1

BCL2 G101V [2] = assay: TR-FRET competitive binding assay, BCL2 G101V; parameters: species or system human; details: for TR_FRET EKI G101V/WT selectivty ratio: ratio Ki BCL2 G101V / Ki BCL2 WT; for TR_FRET EKI G101V/WT selectivty: ratio of Ki BCL2 G101V to BCL2 WT
Summary of the method: as §1

KMS-12-PE Bcl-2 WT = assay: In vitro cytotoxicity CellTiter-Glo 48 h, KMS-12-PE Bcl-2 WT; format: cell-based; details: Homo sapiens, KMS-12-PE, C50 = concentration needed to reach 50% of the cellular viability
Summary of the method: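 KMS-12-PE myeloma cells lentivirally transduced with Bcl-2 WT or G101V (TagRFP-sorted), exposed to compound 11-point dose-response for 48 h at 37 °C, 5% CO2. Viability read by CellTiter-Glo ATP luminescence; C50 is the concentration giving 50% cellular viability.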

BCL2 WT = BCL2 WT (Homo sapiens (Human), UniProt P10415); assay: TR-FRET competitive binding assay, BCL2 WT
Summary of the method: as §1

BCLXL WT = BCLXL WT (Homo sapiens (Human), UniProt Q07817); assay: TR-FRET competitive binding assay, BCLXL WT; details: for Ki: BCLXL WT, Ki determined from IC50, read-out: TR_FRET EKI BclxL; for TR_FRET EKI BCLxL/WT selectivty ratio: ratio Ki BCLxL / Ki BCL2 WT; for TR_FRET EKI BCLxL/WT selectivty: ratio of Ki BCLxL to BCL2 WT
Summary of the method: as §1

[3] = Ki determined from IC50, read-out: TR_FRET EKI_Bcl2 WT
[4] = Ki determined from IC50, read-out: TR_FRET EKI_Bcl2

Sequence of BCLXL WT (Q07817 other isoform, or with tags, fused parts or gaps): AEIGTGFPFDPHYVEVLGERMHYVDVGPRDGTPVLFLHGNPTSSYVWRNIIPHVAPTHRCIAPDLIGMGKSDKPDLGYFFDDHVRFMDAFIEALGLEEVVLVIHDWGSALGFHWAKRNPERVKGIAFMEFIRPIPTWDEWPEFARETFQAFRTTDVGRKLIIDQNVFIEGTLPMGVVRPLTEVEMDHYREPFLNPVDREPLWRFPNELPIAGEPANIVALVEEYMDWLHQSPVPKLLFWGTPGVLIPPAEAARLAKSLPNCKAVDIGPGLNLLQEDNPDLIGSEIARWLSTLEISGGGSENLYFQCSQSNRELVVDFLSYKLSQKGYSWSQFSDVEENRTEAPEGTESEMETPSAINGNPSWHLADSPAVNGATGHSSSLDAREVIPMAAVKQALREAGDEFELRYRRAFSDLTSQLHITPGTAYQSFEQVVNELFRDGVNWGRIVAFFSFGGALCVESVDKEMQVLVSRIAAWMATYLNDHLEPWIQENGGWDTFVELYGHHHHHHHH

| SMILES | Ki (BCL2 D103Y) [nM] | Ki (BCL2 G101V [1]) [nM] | TR_FRET EKI G101V/WT selectivty ratio (BCL2 G101V [2]) | IC50 (KMS-12-PE Bcl-2 WT) [µM] | Ki (BCL2 WT; [3]) [nM] | Ki (BCLXL WT) [nM] | TR_FRET EKI BCLxL/WT selectivty ratio (BCLXL WT) | TR_FRET EKI G101V/WT selectivty (BCL2 G101V [2]) | Ki (BCL2 WT; [4]) [nM] | TR_FRET EKI BCLxL/WT selectivty (BCLXL WT) |
| --- | --- | --- | --- | --- | --- | --- | --- | --- | --- | --- |
| COc1ncc(N(C(=O)c2cc(-c3cc4c(cc3C(=O)N3Cc5ccccc5C[C@H]3C)CN(C(=O)Cc3ccc(OCCN(C)C)cc3F)CC4)n(C)c2C)c2ccccc2)cc1F [Example 219, 5-[2-[2-[4-[2-(dimethylamino)ethoxy]-2-fluoro-phenyl]acetyl]-7-[(3R)-3-methyl-3,4-dihydro-1H-isoquinoline-2-carbonyl]-3,4-dihydro-1H-isoquinolin-6-yl]-N-(5-fluoro-6-methoxy-3-pyridyl)-1,2-dimethyl-N-phenyl-pyrrole-3-carboxamide] | 0.13 | 4.6 | 89.8 | 0.131 | 0.05 | 2.9 | 57.8 | – | – | – |
| Cc1c(C(=O)N(c2ccccc2)c2ccnn2C)cc(-c2cc3c(cc2C(=O)N2Cc4ccccc4C[C@H]2C)CN(C(=O)Cc2ccc(OCCN4CCOCC4)cc2)CC3)n1C [Example 220, 1,2-dimethyl-5-[7-[(3R)-3-methyl-3,4-dihydro-1H-isoquinoline-2-carbonyl]-2-[2-[4-(2-morpholinoethoxy)phenyl]acetyl]-3,4-dihydro-1H-isoquinolin-6-yl]-N-(2-methylpyrazol-3-yl)-N-phenyl-pyrrole-3-carboxamide] | 0.37 | 14.3 | 109.9 | 0.0907 | 0.13 | 42.3 | 325.6 | – | – | – |
| Cc1nn(C)cc1N(C(=O)c1cc(-c2cc3c(cc2C(=O)N2Cc4ccccc4C[C@H]2C)CN(C(=O)Cc2ccc(OCCN(C)C)cc2)CC3)n(C)c1C)c1ccccc1 [Example 221, 5-[2-[2-[4-[2-(dimethylamino)ethoxy]phenyl]acetyl]-7-[(3R)-3-methyl-3,4-dihydro-1H-isoquinoline-2-carbonyl]-3,4-dihydro-1H-isoquinolin-6-yl]-N-(1,3-dimethylpyrazol-4-yl)-1,2-dimethyl-N-phenyl-pyrrole-3-carboxamide] | 0.53 | 19.1 | 79.5 | 0.121 | 0.24 | 28.3 | 118.0 | – | – | – |
| Cc1nn(C)cc1N(C(=O)c1cc(-c2cc3c(cc2C(=O)N2Cc4ccccc4C[C@H]2C)CN(C(=O)Cc2ccc(OCCN(C)C)cc2F)CC3)n(C)c1C)c1ccccc1 [Example 222, 5-[2-[2-[4-[2-(dimethylamino)ethoxy]-2-fluoro-phenyl]acetyl]-7-[(3R)-3-methyl-3,4-dihydro-1H-isoquinoline-2-carbonyl]-3,4-dihydro-1H-isoquinolin-6-yl]-N-(1,3-dimethylpyrazol-4-yl)-1,2-dimethyl-N-phenyl-pyrrole-3-carboxamide] | 0.19 | 6.3 | 69.6 | 0.055 | 0.09 | 12.5 | 138.9 | – | – | – |
| Cc1c(C(=O)N(c2ccccc2)c2cc(F)cc(C#N)c2)cc(-c2cc3c(cc2C(=O)N2Cc4ccccc4C[C@H]2C)CN(C(=O)Cc2ccc(OCCN4CCOCC4)cc2)CC3)n1C [Example 226, N-(3-cyano-5-fluoro-phenyl)-1,2-dimethyl-5-[7-[(3R)-3-methyl-3,4-dihydro-1H-isoquinoline-2-carbonyl]-2-[2-[4-(2-morpholinoethoxy)phenyl]acetyl]-3,4-dihydro-1H-isoquinolin-6-yl]-N-phenyl-pyrrole-3-carboxamide] | 0.76 | 8.4 | – | 0.0365 | – | 41.8 | – | 32.2 | 0.26 | 160.8 |
| Cc1c(C(=O)N(c2ccccc2)c2cc(F)cc(C#N)c2)cc(-c2cc3c(cc2C(=O)N2Cc4ccccc4C[C@H]2C)CN(C(=O)Cc2ccc(OCCN4CCOCC4)cc2F)CC3)n1C [Example 227, N-(3-cyano-5-fluoro-phenyl)-5-[2-[2-[2-fluoro-4-(2-morpholinoethoxy)phenyl]acetyl]-7-[(3R)-3-methyl-3,4-dihydro-1H-isoquinoline-2-carbonyl]-3,4-dihydro-1H-isoquinolin-6-yl]-1,2-dimethyl-N-phenyl-pyrrole-3-carboxamide] | 0.33 | 10.8 | – | 0.0254 | – | 37.2 | – | 63.7 | 0.17 | 219.1 |
| Cc1c(C(=O)N(c2ccc(O)cc2)c2cnn(C)c2)cc(-c2cc3c(cc2C(=O)N2Cc4ccccc4C[C@H]2C)CN(C(=O)Cc2ccc(OCCN4CCOCC4)cc2F)CC3)n1C [Example 233] | 0.08 | 0.32 | – | 0.00694 | – | 2.74 | – | 8.2 | 0.039 | 70.3 |
| Cc1c(N(C(=O)c2cc(-c3cc4c(cc3C(=O)N3Cc5ccccc5C[C@H]3C)CN(C(=O)Cc3ccc(OCCN5CCOCC5)cc3F)CC4)n(C)c2C)c2ccccc2)cc(C#N)n1C [Example 234] | 0.16 | 0.76 | – | 0.00221 | – | 3.68 | – | 8.9 | 0.086 | 42.8 |
| Cc1c(C(=O)N(c2ccccc2)c2cnn(C)c2)cc(-c2cc3c(cc2C(=O)N2Cc4ccccc4C[C@H]2C)CN(C(=O)Cc2ccc(OCCC4CCN(C)CC4)cc2)CC3)n1C [Example 237] | 0.057 | 0.52 | – | 0.007 | – | 1.7 | – | 16.3 | 0.032 | 53.1 |
| Cc1c(C(=O)N(c2ccccc2)c2cnn(C(F)F)c2)cc(-c2cc3c(cc2C(=O)N2Cc4ccccc4C[C@H]2C)CN(C(=O)Cc2ccc(OCCC4CCN(C)CC4)cc2)CC3)n1C [Example 238] | 0.13 | 1.07 | – | 0.00907 | – | 2.8 | – | 16.7 | 0.064 | 43.8 |
| Cc1c(C(=O)N(c2ccccc2)c2cnn(C)c2)cc(-c2cc3c(cc2C(=O)N2Cc4ccccc4C[C@H]2C)CN(C(=O)Cc2ccc(OCCN(C)C)cc2F)CC3)n1C [Example 239] | 0.132 | 5.25 | – | 0.0128 | – | 4.3 | – | 79.5 | 0.066 | 65.2 |
| Cc1c(C(=O)N(c2ccccc2)c2cnn(C)c2)cc(-c2cc3c(cc2C(=O)N2Cc4ccccc4C[C@H]2CN2CCCCC2)CN(C(=O)Cc2ccc(OCCC4CCOCC4)cc2)CC3)n1C [Example 240] | 0.15 | 6.7 | – | 0.0446 | – | 37.5 | – | 57.8 | 0.116 | 323 |
| Cc1c(C(=O)N(c2ccccc2)c2cnn(C(F)F)c2)cc(-c2cc3c(cc2C(=O)N2Cc4ccccc4C[C@H]2CN2CCCCC2)CN(C(=O)Cc2ccc(OCCC4CCOCC4)cc2)CC3)n1C [Example 241] | 0.64 | 39.2 | – | 0.0586 | – | 52.7 | – | 160.7 | 0.244 | 216 |

Reference: patent US20250179047A1, “5-[7-(3,4-DIHYDRO-1H-ISOQUINOLINE-2-CARBONYL)-1,2,3,4 TETRAHYDROISOQUINOLIN-6-YL]-1H-PYRROLE-3-CARBOXAMIDE DERIVATIVES, PHARMACEUTICAL COMPOSITIONS CONTAINING THEM AND THEIR USES AS PRO-APOPTOTIC AGENTS” (LES LABORATOIRES SERVIER, priority 2022, published 2025)
